Source: US9637516B2, “Betulinic acid proline derivatives as HIV inhibitors” (HETERO RESEARCH FOUNDATION, priority 2012, dated 2017)

Legend:
[1] = in vitro; type: cell-based; details: human, Cytotoxicity % viability
Method: (§1) For cyto-toxicity assay the same amount of MT2 cells as in antiviral assay without virus was added to the 96 well plates. The cyto-toxicity was measured using MTT reagent in parallel with p24 estimation. The percent viability is calculated in comparison with vehicle control.

[2] = system: MT2 cells; test: in vitro; type: cell-based; details: human, 1 µM
Method: as §1

[3] = system: HIV-1 strain 92HT599; test: Antiviral activity: p24 estimation in MT2 cells infected with HIV-1 strain 92HT599; type: cell-based; details: for inhibition at 0.1 µM: Human immunodeficiency virus 1, 100 nM; for inhibition at 0.1 µM / inhibition at 1 µM: HIV-1 92HT599, p24, ~96 hours; for inhibition at 1 µM: Human immunodeficiency virus 1, 1000 nM; for IC50: Human immunodeficiency virus 1, HIV-1 92HT599, p24
Method: MT2 cells were infected with HIV-1 strain 92HT599 (10 TCID 50/30000 cells). The infected cells were plated at the concentration of ˜30 000 cells per well in 96 well plate. Test compound was added to the micro plate in defined format with the final concentration of DMSO (vehicle) is not more than 1%. Incubation was carried out in CO2 incubator for ˜96 hours for viral infection. At the end of incubation period an aliquot from each well was taken for p24 estimation. The quantitation of p24 is an index for antiviral activity of the compound. Percent inhibition was calculated with reference to control values (vehicle controls). p-24 estimation was carried out using Advance biosciences kit as per the procedure detailed by supplier.

[4] = Single dose oral pharmacokinetic study; type: in vivo, mice; details: mouse, plasma; Mice oral PK @30 mg/kg (Table 3)
Method: The test item was administered through oral route to animals (rat/mice) at 30 mg/kg dose in a suitable vehicle at 10 ml/kg dose volume. Blood samples (˜50 uL at each time point) were collected from retro-orbital plexus using K3 EDTA as anticoagulant in eppendorf tubes at defined time intervals under light ether anesthesia. The samples were centrifuged at 3500×g to separate plasma and stored at −80° C. until analysis.
Sample analysis: Test samples were analyzed using LC-MS-MS after developing fit-for-purpose method for each of test compound.

Row | Compound | viability at 1 µM [1] | Cytotoxicity % viability [2] | inhibition at 0.1 µM [3] | inhibition at 1 µM [3] | IC50 [3] | AUC(0-t) [4] | Cmax [4] | Tmax [4]
1 | C=C(C)[C@@H]1CC[C@]2(C(=O)N3CCC[C@H]3c3ncc(-c4cccnc4)[nH]3)CC[C@]3(C)[C@H](CC[C@@H]4[C@@]5(C)CC[C@H](OC(=O)CC(C)(C)CC(=O)O)C(C)(C)[C@@H]5CC[C@]43C)[C@@H]12 [Compound 11, 3,3-dimethyl-5-oxo-5-((1R,3aS,5aR,5bR,7aR,9S,11aR,11bR,13aR,13bR)-5a,5b,8,8,11a-pentamethyl-1-(prop-1-en-2-yl)-3a-((S)-2-(5-(pyridin-3-yl)-1H-imidazol-2-yl)pyrrolidine-1-carbonyl)icosahydro-1H-cyclopenta[a]chrysen-9-yloxy)pentanoic acid] | 80% | 84% | 99% | 100% | 1.51 nM | 59.5 µg·h/mL | 7620 ng/mL | 1.25 h
2 | CC(C)(CC(=O)O)CC(=O)O[C@H]1CC[C@]2(C)[C@H]3CC[C@@H]4[C@H]5[C@H](C6(C)CC6)CC[C@]5(C(=O)N5CCC[C@H]5c5ncc(-c6ccccc6)[nH]5)CC[C@@]4(C)[C@]3(C)CC[C@H]2C1(C)C [Compound 13, 3,3-dimethyl-5-oxo-5-((1R,3aS,5aR,5bR,7aR,9S,11aR,11bR,13aR,13bR)-5a,5b,8,8,11a-pentamethyl-1-(1-methylcyclopropyl)-3a-((S)-2-(5-phenyl-1H-imidazol-2-yl)pyrrolidine-1-carbonyl)icosahydro-1H-cyclopenta[a]chrysen-9-yloxy)pentanoic acid] | 74% | 72% | 78% | 100% |  | 156 µg·h/mL | 11100 ng/mL | 4 h
3 | C=C(C)[C@@H]1CC[C@]2(C(=O)N3CCC[C@H]3c3ncc(-c4ccccc4)[nH]3)CC[C@]3(C)[C@H](CC[C@@H]4[C@@]5(C)CC[C@H](OC(=O)[C@H]6C[C@@H](C(=O)O)C6(C)C)C(C)(C)[C@@H]5CC[C@]43C)[C@@H]12 [Compound 14] | 82% | 86% | 94% | 100% | 15.3 nM | 171 µg·h/mL | 11000 ng/mL | 5 h
